The values below come from patent US6747057B2 (priority 2001, dated 2004).

As usually defined, the IC50 is the concentration that gives 50% inhibition. A word on the melting point: it is the temperature, or range, at which the solid turns liquid.

Data set [1] has as its system Tau phosphorylation in primary cultured cerebellar neurones. The experiment in a line: cells. The data set is classed as cell-based. Particulars: Rattus norvegicus, 16 h, read-out: IC50 Tau phosphorylation inhibition in neurones measured by Tau-1 immunoreactivity.
Another data set deals with GSK-3. It counts as biochemical. Particulars: read-out: IC50 GSK-3 inhibition.

Take `O=C(CCl)c1c(Br)sc(Cl)c1Cl` [Compound 1, 1-(2-Bromo-4,5-dichloro-thiophen-3-yl)-2-chloro-ethanone]: the IC50 in data set [1] amounted to 30 µM; with GSK-3 it was 2000 nM.

As for `O=C(CCl)c1cc(Cl)c(Cl)s1` [Compound 2, 2-Chloro-1-(4,5-dichloro-thiophen-2-yl)-ethanone], the half-inhibitory concentration (IC50) in the data set with GSK-3 worked out at 2500 nM.

With `O=C(CCl)c1cc(Br)cs1` [Compound 3, 1-(4-Bromo-thiophen-2-yl)-2-chloro-ethanone], the IC50 in the data set on GSK-3 amounted to 3000 nM.

As to `O=C(CCl)c1cscc1Cl` [Compound 4, 2-Chloro-1-(4-chloro-thiophen-3-yl)-ethanone], in the data set on GSK-3, the IC50 was 25000 nM.

For `O=C(CCl)c1c(Br)sc(Br)c1Br` [Compound 5, 2-Chloro-1-(2 4,5-tribromo-thiophen-3-yl) -ethanone], the 50% inhibitory concentration (IC50) in data set [1] was 30 µM; with GSK-3, 1000 nM.

As to `O=C(CCl)c1cc(Cl)sc1Cl` [Compound 6, 2-Chloro-1-(2,5-dichloro-thiophen-3-yl)-ethanone], the melting point was in the range of 43 to 44 °C. In addition, the half-maximal inhibitory concentration (IC50) with GSK-3 is 5000 nM.

`O=C(CCl)c1ccc(Br)s1` [Compound 8, 1-(5-Bromo-thiophen-2-yl)-2-chloro-ethanone]: in the data set on GSK-3, the half-maximal inhibitory concentration (IC50) stood at 10000 nM.

`O=C(CCl)c1csc(C(=O)CCl)c1` [Compound 9, 2-Chloro-1-[4-(2-chloro-acetyl)-thiophen-2-yl]-ethanone]: the melting point is 154 to 155 °C. Further, the half-inhibitory concentration (IC50) in the data set with GSK-3 stood at 1500 nM.

Regarding `O=C(CCl)c1cccs1` [Compound 10, 2-Chloro-1-thiophen-2-yl-ethanone], the concentration for half-maximal inhibition (IC50) with GSK-3 amounted to 50000 nM.

As for `Cc1sc(C(=O)CCl)cc1C(=O)CCl` [Compound 11, 2-Chloro-1-[4-(2-chloro-acetyl)-5-methyl-thiophen-2-yl]-ethanone], the IC50 in the data set on GSK-3 was determined as 5000 nM.

On to `O=C(CCl)c1cc(Br)c(Br)s1` [Compound 14, 2-Chloro-1-(4,5-dibromo-thiophen-2-yl)-ethanone], for which the 50% inhibitory concentration (IC50) in the data set on GSK-3 turned out to be 1000 nM.

The molecule `O=C(CCl)c1scc(Br)c1Br` [Compound 15, 2-Chloro-1-(3,4-dibromo-thiophen-2-yl)-ethanone] had a melting point of 86 to 88 °C. The IC50 in the data set on GSK-3 came to 500 nM.

`Cc1c(C(=O)CCl)csc1C(=O)CCl` [Compound 16, 2-Chloro-1-[5-(2-chloro-acetyl)-4-methyl-thiophen-3-yl]-ethanone] displayed a melting point of 155 to 156 °C. For the same molecule, the IC50 in the data set on GSK-3 worked out at 2500 nM.

For the molecule `Cc1ccsc1C(=O)CCl` [Compound 18, 2-chloro-1-(3-methyl-thiophen-2-yl)-ethanone], the IC50 in the data set with GSK-3 was found to be 75000 nM.

As to `CC(=O)c1ccc(C(=O)CCl)s1` [Compound 19, 1-(5-Acetyl-thiophen-2-yl)-2-chloro-ethanone], the half-maximal inhibitory concentration (IC50) in the data set on GSK-3 came out at 50000 nM.

`CC(=O)c1csc(C(=O)CCl)c1` [Compound 20, 1-(4-Acetyl-thiophen-2-yl)-2-chloro-ethanone] had a melting point of 118 to 119 °C. In the data set with GSK-3, the IC50 came out at 8000 nM.

Regarding `O=C(CBr)c1scc(Br)c1Br` [Compound 21, 2-Bromo-1-(3,4-dibromo-thiophen-2-yl)-ethanone], the half-maximal inhibitory concentration (IC50) with GSK-3 is 1000 nM.

As for `O=C(CBr)c1cc(Br)c(Br)s1` [Compound 22, 2-Bromo-1-(4,5-dibromo-thiophen-2-yl)-ethanone], in the data set with GSK-3, the IC50 amounted to 1000 nM.

As to `O=C(CBr)c1ccc(Br)s1` [Compound 23, 2-Bromo-1-(5-bromo-thiophen-2-yl)-ethanone], the IC50 with GSK-3 came out at 1000 nM.

Consider `O=C(CCl)c1ccc(Cl)cc1` [Compound 24, 2-Chloro-1-(4-chloro-phenyl)-ethanone], for which, in the data set on GSK-3, the half-maximal inhibitory concentration (IC50) is 2500 nM.

Turning to `O=C(CCl)c1ccccc1` [Compound 25, 2-Chloro-1-phenyl-ethanone], in the data set with GSK-3, the concentration for half-maximal inhibition (IC50) came out at 50000 nM.

In turn, `O=C(CBr)c1ccc(Br)c(Br)c1` [Compound 27, 2-Bromo-1-(3,4-dibromo-phenyl)-ethanone] came in with a melting point of 60 to 61 °C. In addition, in the data set on GSK-3, the IC50 was determined as 750 nM.

With `O=C(CBr)c1ccc(Br)cc1` [Compound 28, 2-Bromo-1-(4-bromo-phenyl)-ethanone], in the data set with GSK-3, the 50% inhibitory concentration (IC50) was found to be 500 nM.

With `O=C(CBr)c1ccccc1` [Compound 30, 2-Bromo-1-phenyl-ethanone], the half-maximal inhibitory concentration (IC50) with GSK-3 was 5000 nM.

Take `O=C(CBr)c1ccc(-c2ccccc2)cc1` [Compound 33, 1-Biphenyl-4-yl-2-bromo-ethanone]: the 50% inhibitory concentration (IC50) in the data set on GSK-3 was 2500 nM.

With `N#Cc1ccc(C(=O)C(Br)Br)cc1` [Compound 39, 4-(2,2-Dibromo-acetyl)-benzonitrile], in the data set on GSK-3, the half-inhibitory concentration (IC50) was 1500 nM.

As to `O=C(CBr)c1ccc(C(F)(F)F)cc1` [Compound 40, 2-Bromo-1-(4-trifluoromethyl-phenyl)-ethanone], the IC50 in the data set on GSK-3 is 5000 nM.

The molecule `O=C(c1ccc(C(F)(F)F)cc1)C(Br)Br` [Compound 41, 2,2-Dibromo-1-(4-trifluoromethyl-phenyl)-ethanone] showed a melting point of 40 to 41 °C. The half-maximal inhibitory concentration (IC50) with GSK-3 came to 5000 nM.

For the molecule `O=C(CBr)c1ccc(N2CCOCC2)cc1` [Compound 42, 2-Bromo-1-(4-morpholin-4-yl-phenyl)-ethanone], the IC50 in the data set on GSK-3 came to 6000 nM.

For the molecule `N#Cc1cccc(C(=O)C(Br)Br)c1` [Compound 44, 3-(2,2-Dibromo-acetyl)-benzonitrile], the 50% inhibitory concentration (IC50) with GSK-3 worked out at 1000 nM.

As to `O=C(c1ccc(I)cc1)C(Br)Br` [Compound 45, 2,2 -Dibromo-1-(4-iodo-phenyl)-ethanone], the melting point lay in the range of 77 to 78 °C. Further, the IC50 with GSK-3 was determined as 2000 nM.

Take `Nc1c(Br)cc(C(=O)CBr)cc1Br` [Compound 47, 1-(4-Amino-3,5-dibromo-phenyl)-2-bromo-ethanone]: the melting point lay within 146 to 147 °C. Also, the IC50 in the data set on GSK-3 came to 3000 nM.
